Assays:
[1] = target: T1, cGMP-specific 3',5'-cyclic phosphodiesterase (Homo sapiens, UniProt O76074); assay: Inhibition of Phosphodiesterase 5 from human
[2] = target: cGMP-specific 3',5'-cyclic phosphodiesterase (Rattus norvegicus, UniProt O54735); assay: Compound was tested for inhibition of stimulation of rat aortic smooth muscle cells (RSMC); assay type: functional
[3] = target: T1, cGMP-specific 3',5'-cyclic phosphodiesterase; assay: Inhibition of Phosphodiesterase 5 from human at dose 10 uM

CCCOc1ccccc1-c1nc(O)c2ccsc2n1
IC50 [1]: 100 nM
EC50 [2]: 2500 nM

CCCOc1ccccc1-c1nc2c(c(C)nn2CCC)c(=O)[nH]1
IC50 [1]: 1 nM
EC50 [2]: 150 nM

CCCOc1ccc(NC(=O)c2cccs2)cc1-c1nc2c(c(C)nn2C)c(=O)[nH]1
IC50 [1]: 1.5 nM
EC50 [2]: < 10 nM

CCCOc1ccc(-c2csc(C)n2)cc1-c1nc2c(c(C)nn2CC)c(=O)[nH]1
EC50 [2]: < 100 nM

CCCOc1ccccc1-c1nc2c(c(C)nn2C)c(=O)[nH]1
EC50 [2]: 200 nM

CCCOc1ccc(NC(C)=O)cc1-c1nc2c(c(C)nn2CC)c(=O)[nH]1
IC50 [1]: 2 nM
EC50 [2]: 30 nM

CCCOc1ccc(-c2nc(C)cs2)cc1-c1nc2c(c(C)nn2CC)c(=O)[nH]1
IC50 [1]: 2 nM
EC50 [2]: < 100 nM

CCCOc1ccccc1-c1nc2ccncc2c(=O)[nH]1
IC50 [1]: 50 nM
EC50 [2]: 10000 nM

CCCOc1ccc([N+](=O)[O-])cc1-c1nc2c(c(C)nn2C)c(=O)[nH]1
IC50 [1]: 4 nM
EC50 [2]: 100 nM

CCCOc1ccccc1-c1nc2nc[nH]c2c(=O)[nH]1
EC50 [2]: 2000 nM

CCCOc1ccc(-c2csc(-c3ccccc3)n2)cc1-c1nc2c(c(C)nn2C)c(=O)[nH]1
IC50 [1]: 2.5 nM
EC50 [2]: 200 nM

CCCOc1ccc(-c2csc(C)n2)cc1-c1nc2c(c(C)nn2C)c(=O)[nH]1
IC50 [1]: 2.5 nM
EC50 [2]: 200 nM

CCCOc1ccc(NS(C)(=O)=O)cc1-c1nc2c(c(C)nn2CC)c(=O)[nH]1
IC50 [1]: 4 nM
EC50 [2]: 200 nM

CCCOc1ccccc1-c1nc2c(c(C)nn2C(C)(C)C)c(=O)[nH]1
IC50 [1]: 20 nM
EC50 [2]: 200 nM

CCCOc1ccc(-c2cccs2)cc1-c1nc2c(c(C)nn2C)c(=O)[nH]1
IC50 [1]: 5 nM
EC50 [2]: 300 nM

CCCOc1ccc(N(C)C)cc1-c1nc2c(c(C)nn2CC)c(=O)[nH]1
IC50 [1]: 4 nM
EC50 [2]: 1500 nM

CCCOc1ccc(C(=O)CN2CCOCC2)cc1-c1nc2c(c(C)nn2C)c(=O)[nH]1
IC50 [1]: 4 nM
EC50 [2]: 300 nM

CCC[S+]([O-])c1ccccc1-c1nc2c(c(C)nn2C)c(=O)[nH]1 (stereo unspecified)
inhibition [3]: 59%

CCCOc1ccc(-c2nccs2)cc1-c1nc2c(c(C)nn2C)c(=O)[nH]1
IC50 [1]: 3 nM
EC50 [2]: < 100 nM

CCCOc1ccc(NC(N)=S)cc1-c1nc2c(c(C)nn2C)c(=O)[nH]1
IC50 [1]: 1 nM
EC50 [2]: 1000 nM

CCCOc1ccc(-c2n[nH]c(-c3ccccc3)n2)cc1-c1nc2c(c(C)nn2C)c(=O)[nH]1
IC50 [1]: 20 nM
EC50 [2]: < 100 nM

CCCOc1ccc(NC(C)=O)cc1-c1nc2c(c(C)nn2C)c(=O)[nH]1
IC50 [1]: 0.8 nM
EC50 [2]: 40 nM

CCCOc1ccc(NC(=O)NCC)cc1-c1nc2c(c(C)nn2C)c(=O)[nH]1
IC50 [1]: 3 nM
EC50 [2]: 50 nM

CCCOc1ccc(NS(C)(=O)=O)cc1-c1nc2c(c(C)nn2C)c(=O)[nH]1
IC50 [1]: 3 nM
EC50 [2]: 350 nM

CCCOc1ccc(NC(=O)CN2CCN(C)CC2)cc1-c1nc2c(c(C)nn2C)c(=O)[nH]1
IC50 [1]: 3.5 nM
EC50 [2]: 400 nM

CCCOc1ccc(NC(N)=O)cc1-c1nc2c(c(C)nn2C)c(=O)[nH]1
IC50 [1]: 2 nM
EC50 [2]: 900 nM

Cc1nn(C)c2nc(-c3ccccc3OC(C)C)[nH]c(=O)c12
IC50 [1]: 40 nM
EC50 [2]: 1000 nM

CCCOc1ccc(-c2n[nH]c(-c3ccccc3)n2)cc1-c1nc2c(c(C)nn2CC)c(=O)[nH]1
IC50 [1]: 1.7 nM
EC50 [2]: < 10 nM

CCCOc1ccccc1-c1nc(O)c2c(C)snc2n1
IC50 [1]: 30 nM
EC50 [2]: 1500 nM

CCCOc1ccc(N(C)C)cc1-c1nc2c(c(C)nn2C)c(=O)[nH]1
IC50 [1]: 5 nM
EC50 [2]: 300 nM

CCCOc1ccccc1-c1nc(O)c2scc(C)c2n1
IC50 [1]: 80 nM
EC50 [2]: 1500 nM

CCCOc1ccccc1-c1nc2c(c(C)nn2Cc2ccccc2)c(=O)[nH]1
IC50 [1]: 70 nM
EC50 [2]: 350 nM

CCCOc1ccc(N)cc1-c1nc2c(c(C)nn2CC)c(=O)[nH]1
IC50 [1]: 7 nM
EC50 [2]: 20 nM

CCCOc1ccccc1-c1nc2cnccc2c(=O)[nH]1
IC50 [1]: 70 nM
EC50 [2]: 2000 nM

CCCOc1ccc(Nc2nnc(N)[nH]2)cc1-c1nc2c(c(C)nn2C)c(=O)[nH]1
IC50 [1]: 5 nM
EC50 [2]: > 10000 nM

CCCOc1ccc(-c2csc(-c3cccnc3)n2)cc1-c1nc2c(c(C)nn2CC)c(=O)[nH]1
IC50 [1]: 2 nM
EC50 [2]: < 100 nM

CCCOc1ccc(N)cc1-c1nc2c(c(C)nn2C)c(=O)[nH]1
IC50 [1]: 10 nM
EC50 [2]: 300 nM

CCCOc1ccccc1-c1nc(O)c2c[nH]nc2n1
IC50 [1]: 150 nM
EC50 [2]: > 10000 nM

CCOc1ccccc1-c1nc2c(c(C)nn2C)c(=O)[nH]1
IC50 [1]: 30 nM
EC50 [2]: 2000 nM

CCCOc1ccc(NC(=O)OC)cc1-c1nc2c(c(C)nn2C)c(=O)[nH]1
IC50 [1]: 2 nM
EC50 [2]: 100 nM

CCCOc1ccccc1-c1nc2ncncc2c(=O)[nH]1
IC50 [1]: 300 nM
EC50 [2]: 7500 nM

CCCOc1ccc(NC(=O)Nc2ccc(F)cc2)cc1-c1nc2c(c(C)nn2C)c(=O)[nH]1
IC50 [1]: 0.2 nM
EC50 [2]: 40 nM

CCCOc1ccccc1-c1nc2c(c(C)nn2CC(F)(F)F)c(=O)[nH]1
IC50 [1]: 7 nM
EC50 [2]: 1500 nM

CCCOc1ccccc1-c1nc2c(c(C)nn2CC)c(=O)[nH]1
IC50 [1]: 2 nM
EC50 [2]: < 100 nM

CCCOc1ccc(-c2csc(-c3ccccc3)n2)cc1-c1nc2c(c(C)nn2CC)c(=O)[nH]1
IC50 [1]: 3 nM
EC50 [2]: 200 nM

CCCOc1ccc(NC(=O)c2ccc(F)cc2)cc1-c1nc2c(c(C)nn2C)c(=O)[nH]1
IC50 [1]: 2 nM
EC50 [2]: < 10 nM

CCCOc1ccc(NC(=S)NCC)cc1-c1nc2c(c(C)nn2C)c(=O)[nH]1
IC50 [1]: 3 nM
EC50 [2]: 60 nM

CCCOc1ccccc1-c1nc(O)c2c(C)csc2n1
IC50 [1]: 60 nM
EC50 [2]: 700 nM

CCCCn1nc(C)c2c(=O)[nH]c(-c3ccccc3OCCC)nc21
IC50 [1]: 6 nM
EC50 [2]: 900 nM

CCCOc1ccccc1-c1nc(O)c2sccc2n1
IC50 [1]: 50 nM
EC50 [2]: 1000 nM

CCCOc1ccc([N+](=O)[O-])cc1-c1nc2c(c(C)nn2CC)c(=O)[nH]1
IC50 [1]: 0.1 nM
EC50 [2]: 50 nM

CCCOc1ccc(NC(=S)NC(=O)OCC)cc1-c1nc2c(c(C)nn2C)c(=O)[nH]1
IC50 [1]: 2 nM
EC50 [2]: 40 nM

CCCOc1ccc(-c2nc(C)cs2)cc1-c1nc2c(c(C)nn2C)c(=O)[nH]1
IC50 [1]: 2.5 nM
EC50 [2]: 450 nM

CCCOc1ccccc1-c1nc2onc(C)c2c(=O)[nH]1
IC50 [1]: 100 nM
EC50 [2]: > 10000 nM

CCCOc1ccc(-c2ccc(C)s2)cc1-c1nc2c(c(C)nn2C)c(=O)[nH]1
IC50 [1]: 4 nM
EC50 [2]: < 100 nM

— ChEMBL document CHEMBL1129550, “Synthesis and cyclic GMP phosphodiesterase inhibitory activity of a series of 6-phenylpyrazolo[3,4-d]pyrimidones” (J Med Chem, 1996)
